# Assay results reported in patent publication EP3915546A1, “USE OF ACID AS SOLVENT FOR PRECIPITATIONS” (leon-nanodrugs GmbH, priority 2020, dated 2021).
# Experiments:
# Assay type in all cases: physicochemical
# [1] = Thermodynamic saturation solubility in solvents and their mixtures with water (24 h stirring at room temperature, HPLC)
# Description: Zur Bestimmung der thermodynamischen Sättigungslöslichkeit einer Substanz in einem bestimmten Lösungsmittel wird zunächst zur Orientierung eine Literaturrecherche durchgeführt, um einen ersten groben Richtwert zu erhalten. Danach wurden 500 mg (und gegebenenfalls mehr) des Wirkstoffpulvers eingewogen und in 5 ml des Lösungsmittels unter leichtem Rühren suspendiert. Falls das Pulver vollständig in Lösung ging, wurde zusätzlich 100 mg (oder iterative nochmalige Zugabe der initial eingewogenen Menge) Feststoff zugesetzt. Dies wurde wiederholt, bis sich ein Bodensatz bildete.
# Die feststoff-enthaltende Mischung wurde verschlossen und 24 Stunden bei Raumtemperatur gerührt. Nach 24 Stunden wurde der Überstand von Bodensatz getrennt, zentrifugiert (Filtration ist nahezu unmöglich) und zur Quantifizierung mit der mobilen Phase der HPLC-Methode verdünnt.
# Ein weiterer Teil des zentrifugierten Überstandes wurde unter Rühren mit demineralisiertem Wasser im Volumenverhältnis von 1:1 gemischt. Dazu wurde Wasser vorgelegt und die Wirkstofflösung unter Rühren oder Schütteln zu pipettiert. Dabei fiel Wirkstoff aus. Der Überstand wurde nach 3 Stunden von Bodensatz getrennt, zentrifugiert und zur Quantifizierung mittels HPLC verdünnt. Der Verdünnungsschritt wird grob abgeschätzt, Zielkonzentration sind z. B. 100 µg/mL je nach Wirkstoff, um im Linearitätsbereich des Detektors zu bleiben. Liegt die Konzentration zu hoch oder zu niedrig wird der Verdünnungsschritt angepasst. Die Verdünnung erfolgte mit einem zu mobilen Phase kompatiblen Lösungsmittelgemisch (z. B. Methanol vorlegen, Probe zugeben, Wasser zugeben). Falls die Substanz in diesem Lösungsmittelgemisch in dieser Verdünnung nicht löslich war, wurde die Verdünnung mit reinem organischem Lösungsmittel wiederholt.
# Dieses Vorgehen wurde für die Mischungsverhältnisse von 1:2, 1:3 und 1:10 wiederholt.
# [2] = Microscopy of the suspension after precipitation in a MikroJetReaktor (particle growth)
# Description: • Figur 1: Mikroskopische Aufnahme von ENZ, entstanden durch Mischen von 1 Teil einer Lösung von 100 mg/ml ENZ in Aceton mit 1 Teil Wasser. Maßstab: Der Balken im Bild entspricht 20 µm. (a) Aufnahme unmittelbar nach Fällung. (b) Aufnahme ca. 12 Stunden nach der Fällung. • Figur 2: Mikroskopische Aufnahme von ENZ-Partikeln. Entstanden durch Mischen von 1 Teil einer Lösung von 100 mg/ml ENZ in Eisessig mit 10 Teilen Wasser. Maßstab: Der Balken im Bild entspricht 20 µm. (a) Aufnahme ca. 1 Stunde nach Fällung. (b) Aufnahme ca. 18 Stunden nach der Fällung.
# 100 mg Enzalutamide werden unter Rühren in 1 ml Aceton bei Raumtemperatur gelöst (100 mg/ml). Diese Lösung wird in einem MikroJetReaktor mit Wasser gemischt in einem Mischungsverhältnis von 1 Teil Enzalutamide in Aceton zu 1,01 Teilen Wasser. Die erhaltene Suspension wird mikroskopiert (Figur. 1).
# 100 mg Enzalutamide werden unter Rühren in 1 ml Eisessig bei Raumtemperatur gelöst (100 mg/ml). Diese Lösung wird in einem MikroJetReaktor mit Wasser gemischt in einem Mischungsverhältnis von 1 Teil Enzalutamide in Eisessig zu 10 Teilen Wasser. Die erhaltene Suspension wird mikroskopiert (Figur 3).
# [3] = Precipitation with water: total concentration in suspension and share dissolved in the mother liquor
# Description: Für die pharmazeutische Weiterverarbeitung der Suspension zu einem Arzneimittel ist es wünschenswert, eine Wirkstoffkonzentration von mehr als 50 mg/ml zu erzeugen. Tabelle 4: Erzeugung von ENZ Partikeln durch Fällung. Gesamtkonzentration an ENZ in der Suspension (mg/ml) und der Anteil (%) des in der Mutterlauge gelösten ENZ
# Wird eine Lösung von 100 mg/ml Enzalutamide in Aceton mit gleichem Teil an Wasser gemischt, so fällt ein Großteil des Enzalutamides aus, da dessen Sättigungskonzentration überschritten wird. Die resultierende Mischung enthält 50% Aceton und eine Gesamtmenge von 50 mg/ml Enzalutamide. Davon werden 7,87 mg/ml in der Mutterlauge gelöst vorliegen (Tabelle 3, Nr. 2, Aceton); dies entspricht 15,7 % der Gesamtmenge von 50 mg/ml (Tabelle 4, Nr. 2, Aceton). Diese gelöste Menge an Enzalutamide (15,7 % der Gesamtmenge) ist zu hoch und führt zu einem unerwünschten und schnellen Wachstum der Partikel.
# [4] = Aceton, Lösungsmittel-Gehalt der Mischung 100 %
# [5] = Aceton/Wasser, Lösungsmittel-Gehalt der Mischung 9,09 %
# [6] = Aceton/Wasser, Lösungsmittel-Gehalt der Mischung 25 %
# [7] = Aceton/Wasser, Lösungsmittel-Gehalt der Mischung 33,3 %
# [8] = Aceton/Wasser, Lösungsmittel-Gehalt der Mischung 50 %
# [9] = Ameisensäure/Wasser, Lösungsmittel-Gehalt der Mischung 9,09 %
# [10] = Eisessig, Lösungsmittel-Gehalt der Mischung 100 %
# [11] = Eisessig/Wasser, Lösungsmittel-Gehalt der Mischung 9,09 %
# [12] = Eisessig/Wasser, Lösungsmittel-Gehalt der Mischung 25 %
# [13] = Eisessig/Wasser, Lösungsmittel-Gehalt der Mischung 33,3 %
# [14] = Eisessig/Wasser, Lösungsmittel-Gehalt der Mischung 50 %
# [15] = Ethanol, Lösungsmittel-Gehalt der Mischung 100 %
# [16] = Ethanol/Wasser, Lösungsmittel-Gehalt der Mischung 9,09 %
# [17] = Ethanol/Wasser, Lösungsmittel-Gehalt der Mischung 25 %
# [18] = Ethanol/Wasser, Lösungsmittel-Gehalt der Mischung 33,3 %
# [19] = Ethanol/Wasser, Lösungsmittel-Gehalt der Mischung 50 %
# [20] = THF, Lösungsmittel-Gehalt der Mischung 100 %
# [21] = THF/Wasser, Lösungsmittel-Gehalt der Mischung 9,09 %
# [22] = THF/Wasser, Lösungsmittel-Gehalt der Mischung 25 %
# [23] = THF/Wasser, Lösungsmittel-Gehalt der Mischung 33,3 %
# [24] = THF/Wasser, Lösungsmittel-Gehalt der Mischung 50 %
smiles,measurement,setting,value
"CCC(C)n1ncn(-c2ccc(N3CCN(c4ccc(OCC5COC(Cn6cncn6)(c6ccc(Cl)cc6Cl)O5)cc4)CC3)cc2)c1=O (centres unmarked) [ITZ, Itraconazol]",Sättigungslöslichkeit von ITZ,[1]; [4],"2,500 mg/ml"
same,Sättigungslöslichkeit von ITZ relativ zu der Sättigungslöslichkeit im Lösungsmittel,[1]; [4],100%
same,Sättigungslöslichkeit von ITZ,[1]; [5],"0,0001 mg/ml"
same,Sättigungslöslichkeit von ITZ relativ zu der Sättigungslöslichkeit im Lösungsmittel,[1]; [5],"0,004%"
same,Sättigungslöslichkeit von ITZ,[1]; [6],"0,002 mg/ml"
same,Sättigungslöslichkeit von ITZ relativ zu der Sättigungslöslichkeit im Lösungsmittel,[1]; [6],"0,09%"
same,Sättigungslöslichkeit von ITZ,[1]; [7],"0,008 mg/ml"
same,Sättigungslöslichkeit von ITZ relativ zu der Sättigungslöslichkeit im Lösungsmittel,[1]; [7],"0,34%"
same,Sättigungslöslichkeit von ITZ,[1]; [8],"0,038 mg/ml"
same,Sättigungslöslichkeit von ITZ relativ zu der Sättigungslöslichkeit im Lösungsmittel,[1]; [8],"1,53%"
same,Sättigungslöslichkeit von ITZ,"[1]; Ameisensäure, Lösungsmittel-Gehalt der Mischung 100 %",435 mg/mL
same,Sättigungslöslichkeit von ITZ,[1]; [9],"0,01 mg/ml"
same,Sättigungslöslichkeit von ITZ relativ zu der Sättigungslöslichkeit im Lösungsmittel,[1]; [9],"0,002%"
same,Sättigungslöslichkeit von ITZ,[1]; [10],"157,8 mg/ml"
same,Sättigungslöslichkeit von ITZ relativ zu der Sättigungslöslichkeit im Lösungsmittel,[1]; [10],100%
same,Sättigungslöslichkeit von ITZ,[1]; [11],"0,028 mg/ml"
same,Sättigungslöslichkeit von ITZ relativ zu der Sättigungslöslichkeit im Lösungsmittel,[1]; [11],"0,02%"
same,Sättigungslöslichkeit von ITZ,[1]; [12],"0,009 mg/ml"
same,Sättigungslöslichkeit von ITZ relativ zu der Sättigungslöslichkeit im Lösungsmittel,[1]; [12],"0,01%"
same,Sättigungslöslichkeit von ITZ,[1]; [13],"0,210 mg/ml"
same,Sättigungslöslichkeit von ITZ relativ zu der Sättigungslöslichkeit im Lösungsmittel,[1]; [13],"0,13%"
same,Sättigungslöslichkeit von ITZ,[1]; [14],"1,455 mg/ml"
same,Sättigungslöslichkeit von ITZ relativ zu der Sättigungslöslichkeit im Lösungsmittel,[1]; [14],"0,92%"
same,Sättigungslöslichkeit von ITZ,[1]; [15],"0,289 mg/ml"
same,Sättigungslöslichkeit von ITZ relativ zu der Sättigungslöslichkeit im Lösungsmittel,[1]; [15],100%
same,Sättigungslöslichkeit von ITZ,[1]; [16],"0,009 mg/ml"
same,Sättigungslöslichkeit von ITZ relativ zu der Sättigungslöslichkeit im Lösungsmittel,[1]; [16],"2,95%"
same,Sättigungslöslichkeit von ITZ,[1]; [17],"0,006 mg/ml"
same,Sättigungslöslichkeit von ITZ relativ zu der Sättigungslöslichkeit im Lösungsmittel,[1]; [17],"2,08%"
same,Sättigungslöslichkeit von ITZ,[1]; [18],"0,002 mg/ml"
same,Sättigungslöslichkeit von ITZ relativ zu der Sättigungslöslichkeit im Lösungsmittel,[1]; [18],"0,69%"
same,Sättigungslöslichkeit von ITZ,[1]; [19],"0,102 mg/ml"
same,Sättigungslöslichkeit von ITZ relativ zu der Sättigungslöslichkeit im Lösungsmittel,[1]; [19],"34,36%"
same,Sättigungslöslichkeit von ITZ,[1]; [20],"4,255 mg/ml"
same,Sättigungslöslichkeit von ITZ relativ zu der Sättigungslöslichkeit im Lösungsmittel,[1]; [20],100%
same,Sättigungslöslichkeit von ITZ,[1]; [21],"0,001 mg/ml"
same,Sättigungslöslichkeit von ITZ relativ zu der Sättigungslöslichkeit im Lösungsmittel,[1]; [21],"0,02%"
same,Sättigungslöslichkeit von ITZ,[1]; [22],"0,002 mg/ml"
same,Sättigungslöslichkeit von ITZ relativ zu der Sättigungslöslichkeit im Lösungsmittel,[1]; [22],"0,05%"
same,Sättigungslöslichkeit von ITZ,[1]; [23],"0,013 mg/ml"
same,Sättigungslöslichkeit von ITZ relativ zu der Sättigungslöslichkeit im Lösungsmittel,[1]; [23],"0,29%"
same,Sättigungslöslichkeit von ITZ,[1]; [24],"0,677 mg/ml"
same,Sättigungslöslichkeit von ITZ relativ zu der Sättigungslöslichkeit im Lösungsmittel,[1]; [24],"15,91%"
same,Sättigungslöslichkeit von ITZ,"[1]; in Tetrahydrofuran, Aceton und Ethanol",< 5 mg/mL
same,Sättigungslöslichkeit von ITZ,[1]; in den Lösungsmitteln Ameisensäure und Eisessig,> 150 mg/mL
"CNC(=O)c1ccc(N2C(=S)N(c3ccc(C#N)c(C(F)(F)F)c3)C(=O)C2(C)C)cc1F [ENZ, Enzalutamid]",Particles seen by microscopy after precipitation,"[2]; 100 mg/ml in Aceton mixed with 1,01 Teilen Wasser in a MikroJetReaktor","Mikropartikel, die innerhalb von 12 Stunden zu großen Nadeln wachsen"
same,Particles seen by microscopy after precipitation,[2]; 100 mg/ml in Eisessig mixed with 10 Teilen Wasser in a MikroJetReaktor,"im Vergleich zu Aceton deutlich kleinere Partikel, die in Laufe von 18 Stunden zu Nadeln wachsen"
same,ENZ in Lösung bei Fällung aus (% der Gesamtmenge in Suspension),"[3]; Aceton, Lösungsmittel-Gehalt der Suspension 100 %, ENZ in Suspension 100 mg/ml",100%
same,ENZ in Lösung bei Fällung aus (% der Gesamtmenge in Suspension),"[3]; Eisessig, Lösungsmittel-Gehalt der Suspension 100 %, ENZ in Suspension 100 mg/ml",100%
same,ENZ in Lösung bei Fällung aus (% der Gesamtmenge in Suspension),"[3]; Fällung aus Aceton with Wasser, Lösungsmittel-Gehalt der Suspension 25 %, ENZ in Suspension 25 mg/ml","0,93%"
same,ENZ in Lösung bei Fällung aus (% der Gesamtmenge in Suspension),"[3]; Fällung aus Aceton with Wasser, Lösungsmittel-Gehalt der Suspension 33,3 %, ENZ in Suspension 33,3 mg/ml","1,61%"
same,ENZ in Lösung bei Fällung aus (% der Gesamtmenge in Suspension),"[3]; Fällung aus Aceton with Wasser, Lösungsmittel-Gehalt der Suspension 50 %, ENZ in Suspension 50 mg/ml","15,7%"
same,ENZ in Lösung bei Fällung aus (% der Gesamtmenge in Suspension),"[3]; Fällung aus Eisessig with Wasser, Lösungsmittel-Gehalt der Suspension 9,09 %, ENZ in Suspension 9,1 mg/ml","0,95%"
same,ENZ in Lösung bei Fällung aus (% der Gesamtmenge in Suspension),"[3]; Fällung aus Eisessig with Wasser, Lösungsmittel-Gehalt der Suspension 25 %, ENZ in Suspension 25 mg/ml","0,45%"
same,ENZ in Lösung bei Fällung aus (% der Gesamtmenge in Suspension),"[3]; Fällung aus Eisessig with Wasser, Lösungsmittel-Gehalt der Suspension 33,3 %, ENZ in Suspension 33,3 mg/ml","0,88%"
same,ENZ in Lösung bei Fällung aus (% der Gesamtmenge in Suspension),"[3]; Fällung aus Eisessig with Wasser, Lösungsmittel-Gehalt der Suspension 50 %, ENZ in Suspension 50 mg/ml","4,09%"
same,ENZ in Lösung bei Fällung aus (% der Gesamtmenge in Suspension),"[3]; Fällung aus THF with Wasser, Lösungsmittel-Gehalt der Suspension 25 %, ENZ in Suspension 25 mg/ml","1,46%"
same,ENZ in Lösung bei Fällung aus (% der Gesamtmenge in Suspension),"[3]; Fällung aus THF with Wasser, Lösungsmittel-Gehalt der Suspension 33,3 %, ENZ in Suspension 33,3 mg/ml","8,04%"
same,ENZ in Lösung bei Fällung aus (% der Gesamtmenge in Suspension),"[3]; Fällung aus THF with Wasser, Lösungsmittel-Gehalt der Suspension 50 %, ENZ in Suspension 50 mg/ml","33,8%"
same,ENZ in Lösung bei Fällung aus (% der Gesamtmenge in Suspension),"[3]; THF, Lösungsmittel-Gehalt der Suspension 100 %, ENZ in Suspension 100 mg/ml",100%
same,Sättigungslöslichkeit von ENZ,[1]; [4],358 mg/mL
same,Sättigungslöslichkeit von ENZ,[1]; [6],"0,233 mg/ml"
same,Sättigungslöslichkeit von ENZ,[1]; [7],"0,537 mg/ml"
same,Sättigungslöslichkeit von ENZ,[1]; [8],"7,87 mg/ml"
same,Sättigungslöslichkeit von ENZ,[1]; [10],"155,4 mg/ml"
same,Sättigungslöslichkeit von ENZ,[1]; [11],"0,086 mg/ml"
same,Sättigungslöslichkeit von ENZ,[1]; [12],"0,112 mg/ml"
same,Sättigungslöslichkeit von ENZ,[1]; [13],"0,294 mg/ml"
same,Sättigungslöslichkeit von ENZ,[1]; [14],"2,044 mg/ml"
same,Sättigungslöslichkeit von ENZ,"[1]; Eisessig/Wasser, Lösungsmittel-Gehalt der Mischung 50 %, listed as Enzalutamide","2,04 mg/ml"
same,Sättigungslöslichkeit von ENZ,[1]; [20],364 mg/mL
same,Sättigungslöslichkeit von ENZ,[1]; [22],"0,365 mg/ml"
same,Sättigungslöslichkeit von ENZ,[1]; [23],"2,68 mg/ml"
same,Sättigungslöslichkeit von ENZ,[1]; [24],"16,9 mg/ml"
